Experiments:
[1] = xn = mol fraction of the nth substance listed; details: 101 kPa, Liquid, x2 = 0; for electrical conductivity: Qcond 2400 VWR international / cell constant, 1.05; for viscosity: Concentric cylinders viscometry; for mass density: Vibrating tube method
[2] = 101 kPa, Liquid; for electrical conductivity: Qcond 2400 VWR international / cell constant, 1.05; for viscosity: Concentric cylinders viscometry; for mass density: Vibrating tube method

CCCCn1cc[n+](C)c1C.F[B-](F)(F)F [1-butyl-2,3-dimethylimidazolium tetrafluoroborate] + CCCCn1cc[n+](C)c1C.[N-]=[N+]=[N-]
[1]
Details	electrical conductivity [S/m]	mass density [kg/m3]	viscosity [mPa·s]
303.15 K	0.0758	–	–
308.15 K	0.106	–	–
313.15 K	0.145	1182.05	364.17
318.15 K	0.194	–	–
323.15 K	0.254	1175.57	204.79
328.15 K	0.327	–	–
333.15 K	0.415	1169.08	124.34
338.15 K	0.518	–	–
343.15 K	0.639	1162.6	80.35
348.15 K	0.779	–	–
353.15 K	0.939	1156.12	54.65
358.15 K	1.12	–	–
363.15 K	1.32	1149.64	38.8
368.15 K	1.55	–	–
373.15 K	–	1143.15	28.56

CCCCn1cc[n+](C)c1C.F[B-](F)(F)F [1-butyl-2,3-dimethylimidazolium tetrafluoroborate]
[2]
Details	electrical conductivity [S/m]	mass density [kg/m3]	viscosity [mPa·s]
303.15 K	0.0758	–	–
308.15 K	0.106	–	–
313.15 K	0.145	1182.05	364.17
318.15 K	0.194	–	–
323.15 K	0.254	1175.57	204.79
328.15 K	0.327	–	–
333.15 K	0.415	1169.08	124.34
338.15 K	0.518	–	–
343.15 K	0.639	1162.6	80.35
348.15 K	0.779	–	–
353.15 K	0.939	1156.12	54.65
358.15 K	1.12	–	–
363.15 K	1.32	1149.64	38.8
368.15 K	1.55	–	–
373.15 K	–	1143.15	28.56

CCCCn1cc[n+](C)c1C.[N-]=[N+]=[N-] [1-butyl-2,3-dimethylimidazolium azide]
[2]
Details	electrical conductivity [S/m]	mass density [kg/m3]	viscosity [mPa·s]
303.15 K	0.0488	–	–
308.15 K	0.0756	–	–
313.15 K	0.112	1070.46	338.19
318.15 K	0.159	–	–
323.15 K	0.219	1065.14	176.04
328.15 K	0.294	–	–
333.15 K	0.383	1059.83	101.63
338.15 K	0.49	–	–
343.15 K	0.614	1054.52	63.6
348.15 K	0.756	–	–
353.15 K	0.918	1049.21	42.44
358.15 K	1.1	–	–
363.15 K	1.3	1043.9	29.82
368.15 K	1.52	–	–
373.15 K	–	1038.59	21.87

Reference: the NIST ThermoML archive (doi:10.1021/je800636k)
